Source: PubChem BioAssay (NCI)
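1) Cells in 96-well plates. 2) Compound, 48 h, 5 concentrations. 3) Linear interpolation between surrounding doses. 4) Unreached endpoint = highest concentration. GI50 = concentration required for 50% inhibition of growth. At the TGI there is no net growth.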

Tested on: MDA-MB-468 breast
Assay: NCI-60 cell line screen, 48 h

| SMILES | GI50 [nM] | TGI [nM] |
| --- | --- | --- |
| C[C@]12CC[C@H]3[C@@H](CC=C4C[C@@H](O)CC[C@@]43C)[C@@H]1CC[C@@H]2[C@](C)(O)CCc1cccnc1 | 1910 | > 100000 |
| O=c1cc(CNc2cc(F)cc(F)c2)c2ccc(I)cc2[nH]1 | 409 | > 100000 |
| O=S(=O)(c1ccc(NC(=S)NCc2cccnc2)cc1)N1CCCCC1 | 9800 | 95800 |
| COc1cccc(C2=C(c3cn(C)c4ccccc34)C(=O)NC2=O)c1 | 5130 | > 25000 |
| CN(C)c1ccc2nc3ccc(=[N+](C)C)cc-3oc2c1 | 620 | 3580 |
| c1ccc2nc(Cn3c[n+](Cc4ccc5ccccc5n4)c4ccccc43)ccc2c1 | 645 | 5440 |
| COc1cc2nc(Cl)nc(Nc3cccc(C(=O)/C=C/c4ccccc4)c3)c2cc1OC | 3390 | > 100000 |
| CCCN(Cc1ccc(F)cc1)c1ccc(CO)c(Cl)c1 | 21.2 | 62.5 |
| O=C(CCl)c1ccc([N+](=O)[O-])o1 | 1060 | 2770 |
| N#CSc1ncnc2nc[nH]c12 | 522 | > 100000 |
| CCN=C1C=CC(=C(c2ccc(N(C)C)cc2)c2ccc(N(C)C)cc2)c2ccccc21 | 47 | 346 |
| Cc1cc(N2CCCCC2)nc(N(CCNc2ccnc3cc(Cl)ccc23)Cc2ccco2)n1 | 1740 | 3870 |
| CN(C)CCNC(=O)c1cccn2c(=O)c3cc4ccccc4cc3nc12 | 299 | 1120 |
| COc1ccc(-c2ccc(-c3ccc(C(=N)N)nc3)s2)cc1 | 1630 | 3110 |
| CC12CCC=CC1CCC1C2CCC2(C)C(c3ccc(=O)oc3)CCC12O (centres undefined) | 313 | 1220 |
| CC1=C(C(=O)OCc2ccccc2)C(c2ccc3c(c2)OCO3)n2c(nc3ccccc32)N1 (centres undefined) | 247 | 39500 |

| SMILES | GI50 [nM] | TGI [nM] |
| --- | --- | --- |
| N#Cc1ncc(/N=C/c2ccc(N(CCCl)CCCl)cc2)s1 | 436 | 3650 |
| COc1ccc([C@@H]2[C@@H](O)C(=O)N2c2cc(OC)c(OC)c(OC)c2)cc1F | 26.9 | 398 |
| C[C@]12CC[C@H]3[C@@H](CCC4=CC(=O)CC[C@@H]43)[C@@H]1CC[C@@H]2OC(=O)N(CCCl)N=O | 512 | 5700 |
| CC(C)(O)c1ccc(N2CCN(c3nnc(Cc4ccccc4)c4ccccc34)CC2)nc1 | 2780 | 12800 |
| CC[C@H](Nc1nc(N)nc(C)c1C#N)c1nc2cccc(CN(C)c3ncc(C(=O)NO)cn3)c2c(=O)n1-c1ccccc1 | 367 | 10500 |
| CC(=O)/C(N=Nc1ccc2oc(=O)ccc2c1)=C(\C)O | 2740 | 12700 |
| CCN(CC)CCOc1ccc(C(=C(C)c2ccc(Cl)cc2)c2ccc(OCCN(CC)CC)cc2)cc1 | 556 | 1100 |
| NC(=O)[C@H]1CCN(c2ncnc(N)c2F)C[C@@H]1N1CCC[C@@H](Nc2cc(Cl)cc(C(F)(F)F)c2)C1=O | 11200 | 34400 |
| C=C(C)[C@@H]1CC[C@]2(C(=O)NCCCN)CC[C@]3(C)[C@H](CC[C@@H]4[C@@]5(C)CC[C@H](O)C(C)(C)[C@@H]5CC[C@]43C)[C@@H]12 | 12600 | 48500 |
| CCCC(=O)NC(c1cccnc1)c1ccc2c(C)ccnc2c1O (centres undefined) | 1680 | 6910 |
| CCc1ccc(NC(=O)Nc2c[nH]c3ccccc23)cc1 | 18800 | > 56500 |
| CCN(CC)c1ccc(/C=C/c2cc(C)c3ccccc3n2)cc1 | 3060 | 9020 |
| COc1cc2cc(Oc3ccc(NC(=O)Nc4ccc(Cl)c(C(F)(F)F)c4)cc3)c(C)nc2cc1OCCN1CCCCC1 | 1340 | 2850 |
| O=C1C(Cl)=C(N/N=c2/[nH][nH]/c(=N/NC3=C(Cl)C(=O)c4ccccc4C3=O)c3ccccc23)C(=O)c2ccccc21 | 14700 | 32900 |
| CCN1C(=O)N(CC)C2C1NN=c1s/c(=C3\C(=O)N(C(C)C)c4ccccc43)c(=O)n12 (centres undefined) | 321 | 5580 |
| COc1ccc(Cn2nc(-c3cc(OC)c(OC)c(OC)c3)c3c2CCc2cnoc2-3)cc1OC | 1940 | 8840 |
